Data on 26 compounds can be found in US9073940B2, “Tricyclic pyrazol amine derivatives” (MERCK SERONO SA, priority 2009, dated 2015).

The subject of the experiment is 4 PI3K isoforms (Human recombinant GST-PI3K). Put plainly: PI3K scintillation proximity assay, best IC50 obtained with the four isoforms (alpha, beta, delta, gamma). It is filed as biochemical. The settings on record: best IC50 obtained with the four isoforms of PI3K; read-out: Best potency measured on the 4 PI3K isoforms. (In a scintillation proximity assay essentially only radioactivity close to the scintillant gives light.)
As to `COc1ccc2c(c1)S(=O)(=O)Cc1c(C(=O)N3CCOCC3)nn([C@H]3CCCN(CCN4CC(F)(F)C4)C3)c1-2` (single isomer, unassigned) [Example 382, 1-{1-[2-(3,3-difluoroazetidin-1-yl)ethyl]piperidin-3-yl}-7-methoxy-3-(morpholin-4-ylcarbonyl)-1,4-dihydrothiochromeno[4,3-c]pyrazole 5,5-dioxide], the IC50 was determined as 15 nM.
On to `COc1ccc2c(c1)S(=O)(=O)Cc1c(C(=O)N3CCOCC3)nn([C@H]3CCCN(CCN4CCOCC4)C3)c1-2` (single isomer, unassigned) [Example 383, 7-methoxy-3-(morpholin-4-ylcarbonyl)-1-[1-(2-morpholin-4-ylethyl)piperidin-3-yl]-1,4-dihydrothiochromeno[4,3-c]pyrazole 5,5-dioxide], for which the IC50 is 24 nM.
Turning to `COc1ccc2c(c1)S(=O)(=O)Cc1c(C(=O)N3CCOCC3)nn([C@H]3CCCN(CCN4CCC(F)CC4)C3)c1-2` (single isomer, unassigned) [Example 384, 1-{1-[2-(4-fluoropiperidin-1-yl)ethyl]piperidin-3-yl}-7-methoxy-3-(morpholin-4-ylcarbonyl)-1,4-dihydrothiochromeno[4,3-c]pyrazole 5,5-dioxide], the IC50 came to 19 nM.
The result for `CC1CN(CCN2CCC[C@H](n3nc(C(=O)N4CCOCC4)c4c3-c3ccccc3S(=O)(=O)C4)C2)CCO1` (single isomer, unassigned) [Example 385, 1-{1-[2-(2-methylmorpholin-4-yl)ethyl]piperidin-3-yl}-3-(morpholin-4-ylcarbonyl)-1,4-dihydrothiochromeno[4,3-c]pyrazole 5,5-dioxide] reads 29 nM; that for `O=C(c1nn([C@H]2CCCN(CCN3CCOCC3)C2)c2c1CS(=O)(=O)c1c(Cl)cccc1-2)N1CCOCC1` (single isomer, unassigned) [Example 386, 6-chloro-3-(morpholin-4-ylcarbonyl)-1-[1-(2-morpholin-4-ylethyl)piperidin-3-yl]-1,4-dihydrothiochromeno[4,3-c]pyrazole 5,5-dioxide], 30 nM.
For `COCCN1CCC[C@H](n2nc(C(=O)N3CCOCC3)c3c2-c2ccc(OC)cc2S(=O)(=O)C3)C1` (single isomer, unassigned) [Example 394, 7-methoxy-1-[1-(2-methoxyethyl)piperidin-3-yl]-3-(morpholin-4-ylcarbonyl)-1,4-dihydrothiochromeno[4,3-c]pyrazole 5,5-dioxide] the value was 93 nM; for `O=C(c1nn([C@H]2CCN(C3CCOCC3)C2)c2c1CS(=O)(=O)c1ccccc1-2)N1CCOCC1` (single isomer, unassigned) [Example 402], 1440 nM; for `O=C(c1nn([C@@H]2CCN(CCN3CCC(F)CC3)C2)c2c1CS(=O)(=O)c1ccccc1-2)N1CCOCC1` (single isomer, unassigned) [Example 409, 1-{1-[2-(4-fluoropiperidin-1-yl)ethyl]pyrrolidin-3-yl}-3-(morpholin-4-ylcarbonyl)-1,4-dihydrothiochromeno[4,3-c]pyrazole 5,5-dioxide], 55 nM.
The result for `O=C(c1nn([C@H]2CCN(CCN3CCC(F)CC3)C2)c2c1CS(=O)(=O)c1ccccc1-2)N1CCOCC1` (single isomer, unassigned) [Example 410, 1-{1-[2-(4-fluoropiperidin-1-yl)ethyl]pyrrolidin-3-yl}-3-(morpholin-4-ylcarbonyl)-1,4-dihydrothiochromeno[4,3-c]pyrazole 5,5-dioxide] reads 3690 nM; that for `O=C(c1nn([C@@H]2CCCN(CCn3ccnc3)C2)c2c1CS(=O)(=O)c1ccccc1-2)N1CCOCC1` (single isomer, unassigned) [Example 411, 1-{1-[2-(1H-imidazol-1-yl)ethyl]piperidin-3-yl}-3-(morpholin-4-ylcarbonyl)-1,4-dihydrothiochromeno[4,3-c]pyrazole 5,5-dioxide], 444 nM; that for `O=C(c1nn([C@H]2CCCN(CCn3ccnc3)C2)c2c1CS(=O)(=O)c1ccccc1-2)N1CCOCC1` (single isomer, unassigned) [Example 412, 1-{1-[2-(1H-imidazol-1-yl)ethyl]piperidin-3-yl}-3-(morpholin-4-ylcarbonyl)-1,4-dihydrothiochromeno[4,3-c]pyrazole 5,5-dioxide], 5600 nM.
As for `O=C(c1nn([C@H]2CCCN(CCC3CCOCC3)C2)c2c1CS(=O)(=O)c1ncccc1-2)N1CCOCC1` (single isomer, unassigned) [Example 422, 3-(morpholin-4-ylcarbonyl)-1-{1-[2-(tetrahydro-2H-pyran-4-yl)ethyl]piperidin-3-yl}-1,4-dihydropyrazolo[3′,4′:4,5]thiopyrano[2,3-b]pyridine 5,5-dioxide], the IC50 is 16 nM.
The result for `O=C(c1nn([C@@H]2CCCN(CCC3CCOCC3)C2)c2c1CS(=O)(=O)c1ncccc1-2)N1CCOCC1` (single isomer, unassigned) [Example 423, 3-(morpholin-4-ylcarbonyl)-1-{1-[2-(tetrahydro-2H-pyran-4-yl)ethyl]piperidin-3-yl}-1,4-dihydropyrazolo[3′,4′:4,5]thiopyrano[2,3-b]pyridine 5,5-dioxide] reads 99 nM; that for `COc1cccc2c1S(=O)(=O)Cc1c(C(=O)N3CCOCC3)nn([C@H]3CCCN(CCN4CCOCC4)C3)c1-2` (single isomer, unassigned) [Example 424, 6-methoxy-3-(morpholin-4-ylcarbonyl)-1-[1-(2-morpholin-4-ylethyl)piperidin-3-yl]-1,4-dihydrothiochromeno[4,3-c]pyrazole 5,5-dioxide], 59 nM.
With `COCCN1CCC[C@H](n2nc(C(=O)N3CCOCC3)c3c2-c2cccc(OC)c2S(=O)(=O)C3)C1` (single isomer, unassigned) [Example 428, 6-methoxy-1-[1-(2-methoxyethyl)piperidin-3-yl]-3-(morpholin-4-ylcarbonyl)-1,4-dihydrothiochromeno[4,3-c]pyrazole 5,5-dioxide], the IC50 worked out at 128 nM.
The result for `COC(=O)CCN1CCC[C@H](n2nc(C(=O)N3CCOCC3)c3c2-c2ccccc2S(=O)(=O)C3)C1` (single isomer, unassigned) [Example 433, methyl 3-{3-[3-(morpholin-4-ylcarbonyl)-5,5-dioxidothiochromeno[4,3-c]pyrazol-1(4H)-yl]piperidin-1-yl}propanoate] reads 48 nM; that for `COCCN1CCC[C@H](n2nc(C(=O)N3CCOCC3)c3c2-c2cccc(F)c2S(=O)(=O)C3)C1` (single isomer, unassigned) [Example 434, 6-Fluoro-1-[1-(2-methoxyethyl)piperidin-3-yl]-3-(morpholin-4-ylcarbonyl)-1,4-dihydrothiochromeno[4,3-c]pyrazole 5,5-dioxide], 31 nM; that for `O=C1CCCN1CCN1CCC[C@H](n2nc(C(=O)N3CCOCC3)c3c2-c2ccccc2S(=O)(=O)C3)C1` (single isomer, unassigned) [Example 440, 1-(2-{3-[3-(morpholin-4-ylcarbonyl)-5,5-dioxidothiochromeno[4,3-c]pyrazol-1(4H)-yl]piperidin-1-yl}ethyl)pyrrolidin-2-one], 80 nM.
For `COc1cccc2c1S(=O)(=O)Cc1c(C(=O)N3CCOCC3)nn([C@H]3CCCN(CCN4CC(F)(F)C4)C3)c1-2` (single isomer, unassigned) [Example 442, 1-{1-[2-(3,3-difluoroazetidin-1-yl)ethyl]piperidin-3-yl}-6-methoxy-3-(morpholin-4-ylcarbonyl)-1,4-dihydrothiochromeno[4,3-c]pyrazole 5,5-dioxide], the IC50 was found to be 40 nM.
For `COc1cccc2c1S(=O)(=O)Cc1c(C(=O)N3CCOCC3)nn([C@H]3CCCN(CCN4CC(F)C4)C3)c1-2` (single isomer, unassigned) [Example 443, 1-{1-[2-(3-fluoroazetidin-1-yl)ethyl]piperidin-3-yl}-6-methoxy-3-(morpholin-4-ylcarbonyl)-1,4-dihydrothiochromeno[4,3-c]pyrazole 5,5-dioxide] the value was 62 nM; for `NCCN1CCC[C@H](n2nc(C(=O)N3CCOCC3)c3c2-c2ccccc2S(=O)(=O)C3)C1` (single isomer, unassigned) [Example 452, 2-{3-[3-(morpholin-4-ylcarbonyl)-5,5-dioxidothiochromeno[4,3-c]pyrazol-1(4H)-yl]piperidin-1-yl}ethanamine], 73 nM.
With `COCCN1CCC[C@H](n2nc(C(=O)N3CCOCC3)c3c2-c2cccc(C)c2S(=O)(=O)C3)C1` (single isomer, unassigned) [Example 467, 1-[1-(2-methoxyethyl)piperidin-3-yl]-6-methyl-3-(morpholin-4-ylcarbonyl)-1,4-dihydrothiochromeno[4,3-c]pyrazole 5,5-dioxide], the IC50 stood at 96 nM.
For `O=C(c1nn(C2CCCN(c3cccnc3)C2)c2c1CS(=O)(=O)c1ccccc1-2)N1CCOCC1` (single isomer, unassigned) [Example 484, 3-(morpholin-4-ylcarbonyl)-1-[1-pyridin-3-ylpiperidin-3-yl]-1,4-dihydrothiochromeno[4,3-c]pyrazole 5,5-dioxide], the IC50 was 48 nM.
The result for `O=C(c1nn([C@H]2CCCN(CC3CCOCC3)C2)c2c1CS(=O)(=O)c1ccccc1-2)N1CCOCC1` (stereo in doubt) [Example 361, 3-(morpholin-4-ylcarbonyl)-1-[1-(tetrahydro-2H-pyran-4-ylmethyl)piperidin-3-yl]-1,4-dihydrothiochromeno[4,3-c]pyrazole 5,5-dioxide] reads 25 nM; that for `O=C(c1nn([C@H]2CCCN(C3CCOCC3)C2)c2c1CS(=O)(=O)c1ccccc1-2)N1CCOCC1` (stereo in doubt) [Example 374, 3-(morpholin-4-ylcarbonyl)-1-[1-(tetrahydro-2H-pyran-4-yl)piperidin-3-yl]-1,4-dihydrothiochromeno[4,3-c]pyrazole 5,5-dioxide], 80 nM.
In the case of `COc1ccc2c(c1)S(=O)(=O)Cc1c(C(=O)N3CCOCC3)nn([C@H]3CCCN(C4CCCOC4)C3)c1-2` (stereo in doubt) [Example 389, 7-methoxy-3-(morpholin-4-ylcarbonyl)-1-[1-(tetrahydro-2H-pyran-3-yl)piperidin-3-yl]-1,4-dihydrothiochromeno[4,3-c]pyrazole 5,5-dioxide], the IC50 worked out at 24 nM.
